Reference: ChEMBL document CHEMBL4002553, “Dragmacidins G and H, Bisindole Alkaloids Tethered by a Guanidino Ethylthiopyrazine Moiety, from a Lipastrotethya sp. Marine Sponge” (J Nat Prod, 2016)

Test system: HeLa
Test: Cytotoxicity against human HeLa cells after 72 hrs by MTT assay
Format: functional, cell-based

| Structure (SMILES) | IC50 [µM] |
| --- | --- |
| N=C(N)NCCSc1nc(-c2c[nH]c3cc(Br)ccc23)cnc1-c1c[nH]c2cc(Br)ccc12 | 4.2 |
| N=C(N)NCCSc1nc(-c2c[nH]c3ccccc23)cnc1-c1c[nH]c2cc(Br)ccc12 | 4.6 |
| O=C(c1nc(-c2c[nH]c3cc(Br)ccc23)c[nH]1)c1c[nH]c2cc(O)ccc12 [BROMOTOPSENTIN] | 1.7 |
| O=C(c1nc(-c2c[nH]c3ccccc23)c[nH]1)c1c[nH]c2cc(O)ccc12 [TOPSENTIN] | 4.4 |
